Measurements reported in patent US20250214990A1, “DIACYLGLYCEROL KINASE (DGK) ALPHA INHIBITORS AND USES THEREOF” (Insilico Medicine IP Limited, priority 2022, published 2025).

Target: T1, DGKA (Homo sapiens, UniProt P23743)
T1 construct: purchased SignalChem D21-10BG
Assay: DGKA Inhibition ADP-Glo Assay
Assay type: biochemical
Details: 40 μM ATP
Protocol: The DGKA inhibition reactions were performed using ADP-Glo assay. The reactions were carried out in 50 mM HEPES, 100 mM NaCl, 10 mM MgCl2, 1 mM CaCl2, 0.005% TritonX-100 and 1 mM DTT as working solution (pH=7.5). 30 nL DMSO solution of each test compound (Top concentration […] with 10 point, 4-fold dilution series for each compound) were transferred to 384 well plate by Echo and 5 μL DGKA (SignalChem, D21-10BG) enzyme working solution at 2× final reaction concentration was added to each well. After incubated at 25° C. for 15 minutes, 5 μL substrate working solution contain 40 μM ATP (Promega, V915B) and 200 µM DLG (SignalChem, D430-59) were added to initiate reaction. After enzymatic reaction at 25° C. for 60 min, ADP Glo assay reagents (Promega, V9102) were added and luminescence was recorded using an EnVision following the instruction of manual. […] The IC50 value was calculated via a regression analysis of the inhibition rate.

T1 sequence (P23743 whole entry): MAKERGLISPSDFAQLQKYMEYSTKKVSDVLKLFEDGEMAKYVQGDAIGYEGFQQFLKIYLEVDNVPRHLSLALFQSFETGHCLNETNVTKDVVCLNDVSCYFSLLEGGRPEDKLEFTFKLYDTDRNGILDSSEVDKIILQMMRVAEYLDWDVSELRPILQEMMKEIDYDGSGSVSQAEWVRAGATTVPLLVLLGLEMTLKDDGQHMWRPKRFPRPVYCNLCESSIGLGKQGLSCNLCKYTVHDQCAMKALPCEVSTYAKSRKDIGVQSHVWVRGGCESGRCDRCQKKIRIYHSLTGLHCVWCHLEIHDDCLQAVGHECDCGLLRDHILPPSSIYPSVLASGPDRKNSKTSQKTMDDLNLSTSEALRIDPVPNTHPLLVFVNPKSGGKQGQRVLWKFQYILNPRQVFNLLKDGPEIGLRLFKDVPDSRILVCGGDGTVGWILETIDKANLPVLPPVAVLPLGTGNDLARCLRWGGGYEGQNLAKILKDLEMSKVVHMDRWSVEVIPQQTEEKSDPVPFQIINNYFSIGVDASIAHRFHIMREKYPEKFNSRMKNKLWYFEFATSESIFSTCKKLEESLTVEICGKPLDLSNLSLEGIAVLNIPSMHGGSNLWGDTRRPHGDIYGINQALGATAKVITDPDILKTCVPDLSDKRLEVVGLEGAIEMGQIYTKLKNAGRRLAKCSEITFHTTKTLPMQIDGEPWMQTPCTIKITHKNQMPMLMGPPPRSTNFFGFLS

Row | Structure (SMILES) | IC50
1 | CCc1cccc2c1COCCN2c1nc(=O)n(C)c2cc(OCCO)c(C#N)cc12 [Example 45, 4-(6-ethyl-2,3-dihydrobenzo[e][1,4]oxazepin-1(5H)-yl)-7-(2-hydroxyethoxy)-1-methyl-2-oxo-1,2-dihydroquinazoline-6-carbonitrile] | 1 to 10 nM
2 | CN1CCC(Oc2cc3c(cc2Cl)c(N2CCOCc4c(C#CC5(C(F)(F)F)CC5)cccc42)nc(=O)n3C)C1 (centres unmarked) [Example 35, 6-chloro-1-methyl-7-((1-methylpyrrolidin-3-yl)oxy)-4-(6-((1-(trifluoromethyl)cyclopropyl)ethynyl)-2,3-dihydrobenzo[e][1,4]oxazepin-1(5H)-yl)quinazolin-2(1H)-one] | 1 to 10 nM
3 | Cn1c(=O)nc(N2CCOCc3c(C#CC4(C(F)(F)F)CC4)ccnc32)c2cc(Cl)c(OCCO)cc21 [Example 30, 6-chloro-7-(2-hydroxyethoxy)-1-methyl-4-(6-((1-(trifluoromethyl)cyclopropyl)ethynyl)-2,3-dihydropyrido[2,3-e][1,4]oxazepin-1(5H)-yl)quinazolin-2(1H)-one] | < 1 nM
4 | Cn1c(=O)nc(N2CCOCc3c(C#CC4(C(F)(F)F)CC4)cccc32)c2cc(C#N)c(O[C@H]3CCOC3)cc21 [Example 23, (S)-1-methyl-2-oxo-7-((tetrahydrofuran-3-yl)oxy)-4-(6-((1-(trifluoromethyl)cyclopropyl)ethynyl)-2,3-dihydrobenzo[e][1,4]oxazepin-1(5H)-yl)-1,2-dihydroquinazoline-6-carbonitrile] | < 1 nM
5 | Cn1c(=O)nc(N2CCOCc3c(C#CC4(C(F)(F)F)CC4)cccc32)c2cc(C#N)c(O[C@@H]3CCOC3)cc21 [Example 24, (R)-1-methyl-2-oxo-7-((tetrahydrofuran-3-yl)oxy)-4-(6-((1-(trifluoromethyl)cyclopropyl)ethynyl)-2,3-dihydrobenzo[e][1,4]oxazepin-1(5H)-yl)-1,2-dihydroquinazoline-6-carbonitrile] | < 1 nM

Second part, the compound after the results:

Row | IC50 | Structure (SMILES)
6 | < 1 nM | CC#Cc1cccc2c1COCCN2c1nc(=O)n(C)c2cc(OCCO)c(Cl)cc12 [Example 40, 6-chloro-7-(2-hydroxyethoxy)-1-methyl-4-(6-(prop-1-yn-1-yl)-2,3-dihydrobenzo[e][1,4]oxazepin-1(5H)-yl)quinazolin-2(1H)-one]
7 | 1 to 10 nM | Cn1c(=O)nc(N2CCOCc3c(C#CC4(C(F)(F)F)CC4)cccc32)c2cc(Cl)c(OC3CCNC3)cc21 (centres unmarked) [Example 34, 6-chloro-1-methyl-7-(pyrrolidin-3-yloxy)-4-(6-((1-(trifluoromethyl)cyclopropyl)ethynyl)-2,3-dihydrobenzo[e][1,4]oxazepin-1(5H)-yl)quinazolin-2(1H)-one]
8 | < 1 nM | Cn1c(=O)cc(N2CCOCc3c(C#CC4(C(F)(F)F)CC4)cccc32)c2nc(C#N)ccc21 [Example 2, 5-methyl-6-oxo-8-(6-((1-(trifluoromethyl)cyclopropyl)ethynyl)-2,3-dihydrobenzo[e][1,4]oxazepin-1(5H)-yl)-5,6-dihydro-1,5-naphthyridine-2-carbonitrile]
9 | < 1 nM | Cn1c(=O)nc(N2CCOCc3c(C#CC4(C(F)(F)F)CC4)cccc32)c2cc(Cl)c(NCCO)cc21 [Example 15, 6-chloro-7-((2-hydroxyethyl)amino)-1-methyl-4-(6-((1-(trifluoromethyl)cyclopropyl)ethynyl)-2,3-dihydrobenzo[e][1,4]oxazepin-1(5H)-yl)quinazolin-2(1H)-one]
10 | < 1 nM | Cn1c(=O)nc(N2CCOCc3c(C#CC4(C)CC4)cccc32)c2cc(Cl)c(OCCO)cc21 [Example 29, 6-chloro-7-(2-hydroxyethoxy)-1-methyl-4-(6-((1-methylcyclopropyl)ethynyl)-2,3-dihydrobenzo[e][1,4]oxazepin-1(5H)-yl)quinazolin-2(11H)-one]
11 | < 1 nM | Cn1c(=O)nc(N2CCOCc3c(C#CC4CC4)cccc32)c2cc(C#N)c(OCCO)cc21 [Example 47, 4-(6-(cyclopropylethynyl)-2,3-dihydrobenzo[e][1,4]oxazepin-1(5H)-yl)-7-(2-hydroxyethoxy)-1-methyl-2-oxo-1,2-dihydroquinazoline-6-carbonitrile]
